Laboratory results reported in patent publication EP4775579A1, “BERBERRUBINE-RELATED COMPOUND” (Mitogenic Co., Ltd., priority 2023, dated 2025).
Counter-ions that a name gives are not always drawn. One block for each compound: values may come before it.

Assays:
[1] = physchem
Text: Determine the minimum amount (mL) of the solvent that can completely dissolve the berberrubine-related compound by changing the volume of the solvent, as appropriate. Calculate the solubility (g/mL) of each berberrubine-related compound in each solvent from the used berberrubine-related compound (1 g) and the minimum volume (mL) of the solvent.
By changing the volume of the solvent, as appropriate, the minimum amount (mL) of the solvent that can completely dissolve the berberrubine-related compound was determined. From the used berberrubine-related compound (1 g) and the minimum volume (mL) of the solvent, the solubility (g/mL) of each berberrubine-related compound in each solvent was determined.

[2] = test system: C2C12 cells; assay: Oxygen consumption rate (OCR) of C2C12 cells, extracellular flux analyzer (basal respiration, ATP synthesis, maximal respiration); format: cell-based; details: 30 µM
Procedure: A DMSO solution of 3.5 mg/mL of quinoid-type berberrubine was added to C2C12 cells in Dulbecco's modified Eagle (DMEM) medium containing 10% fetal bovine serum (FBS), penicillin, and streptomycin, such that the final concentration was 30 µM (FIG. 4A).
As a control, the same amount of water was added to the C2C12 cells described above.
During this period, the oxygen consumption rate (OCR) of the C2C12 cells was measured over time using an extracellular flux analyzer.
The OCR during the period between the addition of the ATP synthase inhibitor and the addition of the uncoupling agent, the OCR during the period between the addition of the uncoupling agent and the addition of the mitochondrial complex inhibitor, and the OCR in the period after the addition of the mitochondrial complex inhibitor each correlate with the amount of basal respiration, ATP synthesis, and maximal respiration in mitochondria. Thus, the amount of basal respiration, ATP synthesis, and maximal respiration in mitochondria were evaluated using OCR at the points of 30, 60, and 90 minutes as indicators.

[3] = test system: mitochondrial respiratory chain supercomplexes; assay: Formation of mitochondrial respiratory chain supercomplexes, FRET between GFP-complex I and RFP-complex IV in C2C12 cells; format: cell-based; details: 3, 10, 30, or 60 µM; 24 hours after addition
Procedure: At the point of 24 hours after addition, formation of a mitochondrial respiratory chain supercomplex was detected by detecting FRET between GFP and RFP, resulting from the association of complex I and complex IV.

[4] = test system: Mouse fetal fibroblast (MEF) cells; assay: Tom20 immunofluorescence staining, content of mitochondria in MEF cells; format: cell-based; details: 30 µM, 48 hours after addition
Procedure: (§1) 48 hours after addition, Tom20, which is a mitochondrial outer membrane protein, was detected by immunofluorescence staining. For the detection of Tom20, the anti-Tom20 antibody (Santa Cruz, sc-11415) was used.

[5] = test system: PINK1-knockout MEF cells; assay: Tom20 immunofluorescence staining, content of mitochondria in PINK1-knockout MEF cells (Parkinson's disease model); format: cell-based, Mouse; details: 30 µM, 48 hours after addition
Procedure: as §1
Note that PINK1 is the gene responsible for Parkinson's disease, and PINK1 deficiency causes mitochondrial dysfunction associated with Parkinson's disease. Therefore, PINK1-knockout MEF cells are used as a model for patients affected by Parkinson's disease.

[6] = test system: HeLa cells; assay: Cancer cell growth, trypan blue cell count; format: cell-based, human; details: 30 µM; 24, 48, and 72 hours after addition
Procedure: Cells were collected at 24, 48, and 72 hours after addition and stained with trypan blue, and the number of cells were measured. Note that the HeLa cells are cell lines derived from human uterus cancer cells and are widely used as model cells for cancer.

[7] = test system: tau proteins; assay: Western blotting of tau proteins in Neuro2A cells with aggregated tau; format: cell-based; details: 30 µM, 8 hours of culturing
Procedure: Neuro2A cells were introduced with ΔN-P301Ltau-CRY2olig by transfection. One day after introduction, nocodazole was added to stop the cell cycle, and subsequent blue light irradiation for 24 hours induced the aggregation of tau proteins in the cells.
After 8 hours of culturing after addition, the tau proteins in the cells were detected by means of Western blotting using an antibody against phosphorylated Tau at position S396 (pS396), an antibody against phosphorylated Tau at position S422 (pS422), an antibody against full length Tau (JM), and an antibody against the C-terminal region of Tau (tauC). The tau proteins were detected at around 100 kDa.

[8] = test system: mouse spermatozoa; assay: Sperm motility and MitoTracker staining after oral administration to mice; format: in vivo
Procedure: Male C57BL/6NJcl mice aged 9 to 10 weeks were orally administered 1.25% agar containing 0.35 mg/mL of quinoid-type berberrubine or 1.25% agar not containing quinoid-type berberrubine for 2 weeks. The oral administration was performed by placing a container containing this agar in a cage with the mice, such that the mice could constantly ingest this agar from the container (subsequent oral administration of agar to mice was performed in the same manner). At 20 weeks of age, the mice were anesthetized isoflurane (KANTO KAGAKU), euthanized by cervical dislocation, and had their testes and epididymis removed. The removed epididymis was cut into pieces with scissors in 1 mL of phosphate buffered saline (PBS) and then placed at room temperature for 1 hour, thereby preparing sperm samples. 20 µL of the sample was transferred to a glass bottom dish, and mitochondria and nuclei were stained by MitoTracker (manufactured by Thermo Fisher Scientific) and Hoechst (manufactured by NACALAI TESQUE, INC.), respectively.

[9] = test system: mice irradiated with UV; assay: Skin of UV-irradiated mice, visual observation; format: in vivo; details: oral, 1.25% agar containing 0.35 mg/mL for 2 months; UV 3 times a week for 8 weeks
Procedure: Male C57BL/6NJcl mice aged 8 weeks were orally administered 1.25% agar containing 0.35 mg/mL of quinoid-type berberrubine or 1.25% agar not containing quinoid-type berberrubine (control) for 2 months. The skin of the mice during the same period was irradiated with UV 3 times a week for 8 weeks. The irradiation dose was 1 mW/cm^2 for 70 seconds (70 mJ/cm^2) in the first week, 1 mW/cm^2 for 80 seconds (80 mJ/cm^2) in the second week, 1 mW/cm^2 for 90 seconds (90 mJ/cm^2) in the third week, and 1 mW/cm^2 for 100 seconds (100 mJ/cm^2) in the fourth week and thereafter. At the end of the same period, the skin of the mice was visually observed.

[10] = test system: mouse visceral fat; assay: Accumulation of visceral fat in mice; format: in vivo; details: male mice aged 50 weeks; oral, 1.25% agar containing 0.35 mg/mL for 2 months
Procedure: Male C57BL/6NJcl mice aged 50 weeks were orally administered 1.25% agar containing 0.35 mg/mL of quinoid-type berberrubine or 1.25% agar not containing quinoid-type berberrubine (control) for 2 months. At the end of the period, accumulation of visceral fat in the mice was observed.

[11] = test system: brown fat cells; assay: TMRM/Hoechst fluorescence microscopy of primary cultured brown fat cells; format: cell-based, mice; details: 30 µM, 48 hours after addition
Procedure: Brown fat cells removed from fetal C57BL/6NJcl mice were cut into pieces with scissors in an isolation buffer solution (0.123 M of sodium chloride, 5 mM of glucose, 5 mM of potassium chloride, 1.3 mM of calcium chloride, 100 mM of HEPES-NaOH (pH 7.4), 4% BSA) containing 1 mg/mL of collagenase, and warmed in a water bath at 37 °C for 30 minutes. After removal of aggregates using a cell strainer, the cells were collected by centrifugation at 1000 x g for 5 minutes and suspended in a DMEM medium containing 20% FBS, thereby preparing primary cultured cells of the brown fat cells.
Moreover, as a control, the same amount of DMSO as in the DMSO solution of quinoid-type berberrubine was added to the primary cultured cells.
The primary cultured cells cultured for 48 hours after addition had the nuclei stained with Hoechst (manufactured by NACALAI TESQUE, INC.) and mitochondria stained with tetramethylrhodamine methyl ester (TMRM, manufactured by Thermo Fisher Scientific) and then were observed under a fluorescence microscope (magnification: 60x).

[12] = test system: C57BL/6N24 mice; assay: M-mode echocardiography in aged mice; format: in vivo; details: mice from 24 months of age, 12 weeks after start; adduct 0.5 mg/mL in drinking water; quinoid-type 0.5 mg/mL in diet
Text: The results of echocardiography using the M-mode echocardiography technique on the mice 12 weeks after the start of administration are shown in FIG. 16.
The results of echocardiography using the M-mode echocardiography technique on the mice 12 weeks after the start of administration are shown in FIG. 20.

[13] = test system: cardiac failure and myocardial fibrosis markers; assay: Quantitative RT-PCR of cardiac failure and myocardial fibrosis markers in aged mice; format: in vivo; details: mice from 24 months of age, 12 weeks after start; adduct 0.5 mg/mL in drinking water; quinoid-type 0.5 mg/mL in diet
Text: Moreover, the results of quantifying cardiac failure and myocardial fibrosis markers in the mice 12 weeks after the start of administration by means of quantitative RT-PCR are shown in FIG. 18.
Moreover, the results of quantifying cardiac failure and myocardial fibrosis markers in the mice 12 weeks after the start of administration by means of quantitative RT-PCR are shown in FIG. 21.

[14] = test system: mitochondrial mRNA; assay: Quantitative RT-PCR of mitochondrial mRNA in aged mice; format: in vivo; details: mice from 24 months of age, 12 weeks after start; adduct 0.5 mg/mL in drinking water; quinoid-type 0.5 mg/mL in diet
Text: Moreover, the results of quantifying the mRNA expression of mitochondria in the mice 12 weeks after the start of administration by means of quantitative RT-PCR are shown in FIG. 19.
Moreover, the results of quantifying the expression of Mitol which is mRNA of mitochondria in the mice 12 weeks after the start of administration by means of quantitative RT-PCR are shown in FIG. 22.

[15] = test system: mitochondria isolated from cardiomyocytes of mice; assay: OCR of mitochondria isolated from cardiomyocytes of treated mice, flux analyzer; format: in vivo; details: 12 weeks after start; adduct 0.5 mg/mL in drinking water; quinoid-type 0.5 mg/mL in diet
Text: Moreover, mitochondria were isolated from cardiomyocytes of mice 12 weeks after the start of administration using a standard method. 23A and 23B.

[16] = literature value; cited from earlier work

- solubility at 0.5 h ([1]; methanol): 34 mg/mL
- solubility at 0.5 h ([1]; water): 30 mg/mL
SMILES: COc1ccc2cc3n(cc-2c1=O)CCc1cc2c(cc1-3)OCO2 [berberrubine acetate salt]

SMILES: COc1ccc2cc3n(cc-2c1=O)CCc1cc2c(cc1-3)OCO2 [quinoid-type berberrubine, 10-methoxy-5,6-dihydro-9H-[1,3]dioxolo[4,5-g]isoquinolino [3,2-a]isoquinolin-9-one]
- basal respiration in mitochondria, enhancement compared to the controls ([2]; 24 hours after addition, OCR at 30 minutes): about 4 fold
- ATP synthesis in mitochondria, enhancement compared to the controls ([2]; 24 hours after addition, OCR at 60 minutes): about 4 fold
- maximal respiration in mitochondria, enhancement compared to the controls ([2]; 24 hours after addition, OCR at 90 minutes): about 4 fold
- ATP synthesis in mitochondria, compared to the addition of the berberrubine acetic acid adduct ([2]; C2C12 cells): about 2.5 fold
- basal respiration in mitochondria, compared to the addition of the berberrubine acetic acid adduct ([2]; C2C12 cells): about 2.5 fold
- maximal respiration in mitochondria, compared to the addition of the berberrubine acetic acid adduct ([2]; C2C12 cells): about 2.6 fold
- formation of mitochondrial respiratory chain supercomplexes (FRET between GFP and RFP) [3]: promoted the formation of mitochondrial respiratory chain supercomplexes in a concentration-dependent manner
- content of mitochondria in the cells compared to the control [4]: increased
- content of mitochondria in the cells [5]: increased
- ratio of the number of HeLa cells after administration with respect to the number of HeLa cells in the control [6]: decreased over time
- expression level of full-length Tau [7]: no significant changes
- ratio of the expression level of phosphorylated Tau at position S396 with respect to that of full-length Tau (pS396-tau/JM), reduction compared to the control [7]: about 35%
- ratio of the expression level of phosphorylated Tau at position S422 with respect to that of full-length Tau (pS422-tau/JM), reduction compared to the control [7]: no significant changes
- number of spermatozoa in which mitochondria were stained with MitoTracker, increase compared to the control ([8]; 1.25% agar containing 0.35 mg/mL for 2 weeks): about twofold
- sperm motility compared to the control ([8]; quinoid-type: 1.25% agar containing 0.35 mg/mL for 2 weeks, adduct: 2 mg/mL aqueous solution): more actively motile
- number of wrinkles compared to mice not administered [9]: fewer
- skin darkening compared to mice not administered [9]: inhibited
- wrinkle depths compared to mice not administered [9]: shallower
- visceral fat accumulation compared to mice not administered [10]: inhibited
- increase in amount of active mitochondria having normal membrane potential, compared to the addition of a berberrubine acetic acid adduct [11]: to a greater extent
- staining of mitochondria by TMRM (active mitochondria having normal membrane potential) [11]: strong staining
- % left ventricular fractional shortening (%FS) compared to the control [12]: increase
- left ventricular ejection fraction (LVEF) compared to the control [12]: increase
- left ventricular end-diastolic diameter (LVDd) compared to the control [12]: decrease
- left ventricular end-systolic diameter (LVDs) compared to the control [12]: decrease
- left ventricular filling pressure (E/e') compared to the control [12]: decrease
- expression levels of cardiac failure markers (Nppa, Nppb, and Myh7) compared to the control [13]: reduced
- expression levels of myocardial fibrosis markers (Collagen1 and Ctgf) compared to the control [13]: reduced
- expression of Mitol compared to the control [14]: increase
- oxygen consumption rate (OCR) in State 2 (ADP-limited state) compared to the control [15]: increased
- oxygen consumption rate (OCR) in State 3 (activated respiratory state) compared to the control [15]: increased
- oxygen consumption rate (OCR) in State 3u (uncoupled state) compared to the control [15]: increased
- oxygen consumption rate (OCR) in State 4o (oligomycin-induced state) compared to the control [15]: increased
- SOLUBILITY (g/mL) OF BERBERRUBINE-RELATED COMPOUND IN 1 mL OF SOLVENT, WATER [16]: 0.000013 (LITERAT URE VALUE) g/mL
